Experimental findings from patent US5047406A, “Substituted cyclohexanols as central nervous system agents” (Warner-Lambert Co., priority 1990, dated 1991) are described below.

The subject of experiment [1] is Locomotor Activity in Mice. In words: Inhibition of locomotor activity in mice. The format is in vivo. To be noted: for Inhibition of Locomotor Activity in Mice ED50: IP; for ED50: Mus musculus, ip. From the text: (§1) The above test methods are incorporated herein by reference.
Experiment [2] concerns the target T1, [^3 H]-Spiroperidol Binding (Homo sapiens, UniProt P14416).
T1 construct: receptor assay described by D. Grigoriadis and P. Seeman, Journal of Neurochemistry, Volume 44, pages 1925-1935 (1985); from tissue
The experiment in a line: Inhibition of [^3 H]-spiroperidol binding in a receptor assay.
Source text: as §1

In experiment [3] the test system is Brain Striatal Dopamine Synthesis. In words: Effects on brain striatal dopamine synthesis in rats. The settings on record: Rattus norvegicus. It is filed as in vivo.
Source text: as §1

The mark [4] stands for this setting: read-out: Inhibition of [^3 H]-Spiroperidol Binding IC50.
The mark [5] stands for this setting: Inhibition of [^3 H]-Spiroperidol Binding IC50.

Like-named read-outs stand apart in the source and are kept apart here.

T1 sequence (P14416 whole entry): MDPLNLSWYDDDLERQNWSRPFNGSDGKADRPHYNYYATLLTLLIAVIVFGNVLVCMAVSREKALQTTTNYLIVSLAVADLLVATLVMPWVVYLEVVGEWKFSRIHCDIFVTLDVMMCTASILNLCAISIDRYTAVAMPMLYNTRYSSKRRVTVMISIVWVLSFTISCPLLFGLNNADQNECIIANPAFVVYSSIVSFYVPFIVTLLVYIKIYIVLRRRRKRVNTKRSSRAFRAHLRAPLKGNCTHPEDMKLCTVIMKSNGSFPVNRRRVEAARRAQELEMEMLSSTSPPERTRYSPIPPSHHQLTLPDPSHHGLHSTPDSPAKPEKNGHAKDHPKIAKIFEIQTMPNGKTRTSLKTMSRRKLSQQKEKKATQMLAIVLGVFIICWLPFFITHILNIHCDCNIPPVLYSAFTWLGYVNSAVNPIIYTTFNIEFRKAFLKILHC

Take `OC1(c2ccccn2)CCC(N2CCN(c3ncccn3)CC2)CC1` (stereo not drawn) [Example 18, trans-1-(2-Pyridinyl)-4-[4-(2-pyrimidinyl)-1-piperazinyl]cyclohexanol]: the “Inhibition of Locomotor Activity in Mice ED50” value (from here on “Inhibition … in Mice ED50”) in experiment [1] was greater than 30 mg/kg. A word on the IC50: it is the concentration at which inhibition is half-maximal. The ED50 is the midpoint of the dose-response relation. Lower therefore signals greater potency. In the case of `O=C(N[C@H]1CC[C@H](N2CCN(c3ccccn3)CC2)CC1)c1cccs1` [Example 44, trans N-[4-[4-(2-Pyridinyl)-1-piperazinyl]cyclohexyl]-2-thiophenecarboxamide], in experiment [2] (setting [4]), the IC50 is 2.52 µM. Besides, it took a dose of 0.29 mg/kg to reach the 50% effect level in experiment [1] (ED50). In the case of `OC1(c2ccccn2)CCC(N2CCN(c3ccccn3)CC2)CC1` (stereo not drawn) [Example 21, cis-1-(2-Pyridinyl)-4-[4-(2-pyridinyl)-1-piperazinyl]cyclohexanol], the IC50 in experiment [2] (setting [4]) stood at 2.78 µM. For the same molecule, the “Inhibition … in Mice ED50” value in experiment [1] stood at 2.3 mg/kg. On to `O=C(N[C@H]1CC[C@H](N2CCN(c3ccccn3)CC2)CC1)c1ccc(Cl)cc1` [Example 43, trans 4-Chloro-N-[4-[4-(2-pyridinyl)-1-piperazinyl]cyclohexyl]benzamide], for which the IC50 in experiment [2] (setting [4]) was found to be 7.79 µM. Also, the 50% effective dose (ED50) in experiment [1] turned out to be 0.78 mg/kg. As a reminder, the inhibition in vivo is the change of the read-out against control, counted positive when it falls. A higher inhibition in vivo goes with a response far below the control. The molecule `OC1(c2cccnc2)CCC(CCN2CC=C(c3ccccc3)CC2)CC1` (stereo not drawn) [Example 12, cis-1-(3-Pyridinyl)-4-[2-[3,6-dihydro-4-phenyl-1(2H)-pyridinyl]ethyl]cyclohexanol] had an inhibition in vivo at 10 mg/kg in experiment [3] (IP) of 79%. Also, in experiment [2] (setting [4]), the IC50 amounted to 0.116 µM. Moreover, the ED50 in experiment [1] is 0.25 mg/kg.

Turning to `OC1(c2ccccn2)CCC(N2CCN(c3ncccn3)CC2)CC1` (stereo not drawn) [Example 19, cis-1-(2-Pyridinyl)-4-[4-(2-pyrimidinyl)-1-piperazinyl]cyclohexanol], the “Inhibition … in Mice ED50” value in experiment [1] came out at 13.0 mg/kg.

Turning to `OC1(c2cccs2)CCC(CN2CCN(c3ccccn3)CC2)CC1` (stereo not drawn) [Example 17, cis-4-[[4-(2-Pyridinyl)-1-piperazinyl]methyl]-1-(2-thienyl)cyclohexanol], the IC50 in experiment [2] (setting [4]) is 3.9 µM. Also, the “Inhibition … in Mice ED50” value in experiment [1] was found to be 5.2 mg/kg.

`O=C(N[C@H]1CC[C@H](N2CCN(c3ccccn3)CC2)CC1)c1ccccc1` [Example 40, trans N-[4-[4-(2-Pyridinyl)-1-piperazinyl]cyclohexyl]benzamide] returned an inhibition in vivo at 10 mg/kg in experiment [3] (ip) of 65%. In addition, the IC50 in experiment [2] (setting [4]) was 2.8 µM. In experiment [1], this molecule registered a 50% effective dose (ED50) of 0.36 mg/kg. As to `OC1(c2ccccc2)CCC(N2CCN(c3ccccn3)CC2)CC1` (centres unmarked) [Example 27, 1-Phenyl-4-[4-(2-pyridinyl)-1-piperazinyl]cyclohexanol], in experiment [2] (setting [4]), the IC50 stood at 1.66 µM. In experiment [1], this molecule displayed an ED50 of 0.83 mg/kg. For `O=C(N[C@H]1CC[C@@H](CCN2CCN(c3ccccn3)CC2)CC1)c1ccc(Cl)cc1` [Example 56, cis 4-Chloro-N-[4-[2-[4-(2-pyridinyl)-1-piperazinyl]ethyl]cyclohexyl]benzamide], in that order: 1.62 µM and 6.3 mg/kg. On to `O=C(N[C@H]1CC[C@@H](CCN2CC=C(c3ccccc3)CC2)CC1)c1ccccc1` [Example 69, cis N-[4-[2-(3,6-Dihydro-4-phenyl-1(2H)-pyridinyl)ethyl]cyclohexyl]benzamide], for which, in experiment [1], the ED50 amounted to 2.1 mg/kg. In the case of `OC1(c2cccnc2)CCC(N2CCN(c3ccccn3)CC2)CC1` (stereo not drawn) [Example 22, trans-1-(3-Pyridinyl)-4-[4-(2-pyridinyl)-1-piperazinyl]cyclohexanol], the IC50 in experiment [2] (setting [4]) was 12.5 µM. Further, the “Inhibition … in Mice ED50” value in experiment [1] amounted to 30 mg/kg. For `OC1(c2cccnc2)CCC(N2CC=C(c3ccccc3)CC2)CC1` (stereo not drawn) [Example 30, cis-4-(3,6-Dihydro-4-phenyl-1(2H)-pyridinyl)-1-(3-pyridinyl)cyclohexanol], in that order: 1.25 µM and 1.3 mg/kg. The molecule `O=C(N[C@H]1CC[C@H](N2CC=C(c3ccccc3)CC2)CC1)c1ccsc1` [Example 48, trans N-[4-(3,6-Dihydro-4-phenyl-1(2H)-pyridinyl)cyclohexyl]-3-thiophenecarboxamide] displayed an inhibition in vivo at 10 mg/kg in experiment [3] (IP) of 88%. For the same molecule, in experiment [2] (setting [5]), the IC50 came to 0.09 µM. The molecule further gave an ED50 in experiment [1] of 0.27 mg/kg. As to `Cc1ccc(C(=O)N[C@H]2CC[C@@H](CCN3CCN(c4ccccn4)CC3)CC2)cc1` [Example 55, cis 4-Methyl-N-[4-[2-[4-(2-pyridinyl)-1-piperazinyl]ethyl]cyclohexyl]benzamide], the IC50 in experiment [2] (setting [4]) is 0.83 µM. As for `COc1ccccc1C(=O)N[C@H]1CC[C@H](N2CCN(c3ccccn3)CC2)CC1` [Example 41, trans N-[4-[4-(2-Pyridinyl)-1-piperazinyl]cyclohexyl]-2-methoxybenzamide], the IC50 in experiment [2] (setting [4]) is 0.53 µM. In experiment [1], the ED50 was 1.9 mg/kg. Consider `OC1(c2nccs2)CCC(CCN2CCN(c3ccccn3)CC2)CC1` (centres unmarked) [Example 9, 4-[2-[4-(2-Pyridinyl)-1-piperazinyl]ethyl]-1-(2-thiazolyl)cyclohexanol], for which, in experiment [2] (setting [4]), the IC50 was determined as 1.55 µM. This molecule also returned an ED50 in experiment [1] of 1 mg/kg. On to `O=C(N[C@H]1CC[C@H](N2CC=C(c3ccccc3)CC2)CC1)C1CCCCC1` [Example 50, trans N-[4-(3,6-Dihydro-4-phenyl-1(2H)-pyridinyl)cyclohexyl]cyclohexanecarboxamide], for which the IC50 in experiment [2] (setting [4]) was 1.6 µM. The same molecule showed an ED50 in experiment [1] of 1.1 mg/kg. As to `OC1(c2ccccn2)CCC(N2CCN(c3ccccn3)CC2)CC1` (stereo not drawn) [Example 20, trans-1-(2-Pyridinyl)-4-[4-(2-pyridinyl)-1-piperazinyl]cyclohexanol], in experiment [1], the “Inhibition … in Mice ED50” value was greater than 30 mg/kg. Molecule `OC1(c2cccs2)CCC(N2CCN(c3ccccn3)CC2)CC1` (centres unmarked) [Example 24, 4-[4-(2-Pyridinyl)-1-piperazinyl]-1-(2-thienyl)cyclohexanol] yielded an ED50 in experiment [1] greater than 30 mg/kg. Take `O=C(N[C@H]1CC[C@H](CCN2CCN(c3ccccn3)CC2)CC1)c1ccc(Cl)cc1` [Example 57, trans 4-Chloro-N-[4-[2-[4-(2-pyridinyl)-1-piperazinyl]ethyl]cyclohexyl]benzamide]: in experiment [2] (setting [4]), the IC50 amounted to 0.62 µM. In experiment [1], this molecule gave an ED50 of 0.51 mg/kg. Taken in the same sequence, the figures for `OC1(c2ccsc2)CCC(N2CCN(c3ccccn3)CC2)CC1` (centres unmarked) [Example 25, 4-[4-(2-Pyridinyl)-1-piperazinyl]-1-(3-thienyl)cyclohexanol] were 2.7 µM and 2.4 mg/kg. With `CC(=O)N[C@H]1CC[C@H](CCN2CCN(c3ccccn3)CC2)CC1` [Example 58, trans N-[4-[2-[4-(2-Pyridinyl)-1-piperazinyl]ethyl]cyclohexyl]acetamide], in experiment [3] (ip), at 10 mg/kg the inhibition in vivo was 87%. Moreover, the 50% effect level in experiment [1] (ED50) was put at a dose of 0.03 mg/kg. In the case of `OC1(c2cccnc2)CCC(N2CC=C(c3ccccc3)CC2)CC1` (stereo not drawn) [Example 29, trans-4-(3,6-Dihydro-4-phenyl-1(2H)-pyridinyl)-1-(3-pyridinyl)cyclohexanol], the “Inhibition … in Mice ED50” value in experiment [1] stood at 25.6 mg/kg. Regarding `OC1(c2cccs2)CCC(CN2CCN(c3ccccn3)CC2)CC1` (stereo not drawn) [Example 16, trans-4-[[4-(2-Pyridinyl)-1-piperazinyl]methyl]-1-(2-thienyl)cyclohexanol], the 50% effect level in experiment [1] (ED50) was put at a dose of 4.3 mg/kg. As for `OC1(c2ccc(Cl)cc2)CCC(N2CCN(c3ccccn3)CC2)CC1` (stereo not drawn) [Example 1, trans-1-(4-Chlorophenyl)-4-[4-(2-pyridinyl)-1-piperazinyl]cyclohexanol], the IC50 in experiment [2] (setting [4]) was found to be 0.333 µM. In addition, the “Inhibition … in Mice ED50” value in experiment [1] stood at 2.3 mg/kg. In experiment [3] (ip), `O=C(N[C@H]1CC[C@H](CCN2CCN(c3ccccn3)CC2)CC1)c1ccc(Cl)c(Cl)c1` [Example 59, trans 3,4-Dichloro-N-[4-[2-[4-(2-pyridinyl)-1-piperazinyl]ethyl]cyclohexyl]benzamide] showed an inhibition in vivo at 10 mg/kg of 7%. Moreover, in experiment [1], it took a dose of 14.4 mg/kg to reach the 50% effect level (ED50).

For `OC1(c2cccnc2)CCC(N2CCN(c3ccccn3)CC2)CC1` (stereo not drawn) [Example 23, cis-1-(3-Pyridinyl)-4-[4-(2-pyridinyl)-1-piperazinyl]cyclohexanol], the IC50 in experiment [2] (setting [4]) was 1.16 µM. Moreover, the “Inhibition … in Mice ED50” value in experiment [1] came to 1.6 mg/kg. `OC1(c2cccs2)CCC(CCN2CC=C(c3ccccc3)CC2)CC1` (stereo not drawn) [Example 13, cis-4-[2-(3,6-Dihydro-4-phenyl-1(2H)-pyridinyl)ethyl]-1-(2-thienyl)cyclohexanol] returned an IC50 in experiment [2] (setting [5]) of 0.051 µM. In addition, the median effective dose (ED50) in experiment [1] came to 2 mg/kg.

`OC1(c2ccccn2)CCC(N2CC=C(c3ccccc3)CC2)CC1` (centres unmarked) [Example 28, 4-(3,6-Dihydro-4-phenyl-1(2H)-pyridinyl)-1-(2-pyridinyl)cyclohexanol] yielded an ED50 in experiment [1] of 1.8 mg/kg.

With `OC1(c2ccccn2)CCC(CCN2CCN(c3ccccn3)CC2)CC1` (centres unmarked) [Example 6, 1-(2-Pyridinyl)-4-[2-[4-(2-pyridinyl)-1-piperazinyl]ethyl]cyclohexanol], the IC50 in experiment [2] (setting [4]) was determined as 1.05 µM. The 50% effect level in experiment [1] (ED50) was put at a dose of 0.34 mg/kg. In the case of `O=C(N[C@H]1CC[C@@H](CCN2CC=C(c3ccccc3)CC2)CC1)c1cccs1` [Example 70, cis N-[4-[2-(3,6-Dihydro-4-phenyl-1(2H)-pyridinyl)ethyl]cyclohexyl]-2-thiophenecarboxamide], the concentration for half-maximal inhibition (IC50) in experiment [2] (setting [4]) stood at 0.28 µM.

`OC1(c2ccc(Cl)cc2)CCC(N2CCN(c3ccccn3)CC2)CC1` (stereo not drawn) [Example 1a, cis-1-(4-Chlorophenyl)-4-[4-(2-pyridinyl)-1-piperazinyl]cyclohexanol]: the half-maximal inhibitory concentration (IC50) in experiment [2] (setting [4]) was determined as 0.816 µM. Moreover, in experiment [1], the “Inhibition … in Mice ED50” value is reported as 0.86 mg/kg.

`O=C(N[C@H]1CC[C@H](CN2CCN(c3ccccn3)CC2)CC1)c1ccccc1` [Example 60, trans N-[4-[[4-(2-Pyridinyl)-1-piperazinyl]methyl]cyclohexyl]benzamide] registered an inhibition in vivo at 10 mg/kg in experiment [3] (ip) of 36%. In experiment [1], this molecule gave an ED50 of 1 mg/kg. On to `COc1ccc(C2(O)CCC(N3CCN(c4ccccn4)CC3)CC2)cc1` (centres unmarked) [Example 26, 1-(4-Methoxyphenyl)-4-[4-(2-pyridinyl)-1-piperazinyl]cyclohexanol], for which the half-maximal inhibitory concentration (IC50) in experiment [2] (setting [4]) is 0.67 µM. The molecule also had an ED50 in experiment [1] of 0.3 mg/kg. Taken in the same sequence, the figures for `OC1(c2cccnc2)CCC(CCN2CCN(c3ccccn3)CC2)CC1` (centres unmarked) [Example 10, 1-(3-Pyridinyl)-4-[2-[4-(2-pyridinyl)-1-piperazinyl]ethyl]cyclohexanol] were 0.847 µM and 0.37 mg/kg.
